The values that follow come from patent US6087346A, “Sigma receptor ligands and the use thereof” (Cambridge Neuroscience, Inc., priority 1996, dated 2000).

Each structure is given as a SMILES string. Structures can show the parent of a compound that is named as a salt.

The first test deals with sigma receptor (sigma-1 and sigma-2 sites). Put plainly: Sigma receptor binding assay ([^3 H]DTG, guinea pig brain membrane homogenates). The note with it: Example 3 table; tested by the [^3 H]DTG assay of Example 2. How it is done: Briefly, frozen whole guinea-pig brains (Biotrol, Indianapolis, Ind.) were homogenized in 10 volumes (w/v) of ice-cold 320 mM sucrose using a Brinkman® polytron. The homogenate was centrifuged at 1,000× g for 20 minutes at 4° C. The supernatant was centrifuged at 20,000× g for 20 minutes at 4° C. The resulting pellet was resuspended in 10 initial volumes of 50 mM Tris/HCI buffer at pH 7.4 and centrifuged at 20,000× g for 20 minutes at 4° C. The resulting pellet was resuspended in 5 initial volumes ice-cold 50 mM Tris/HCl (pH 7.4), and the final volume was adjusted to yield a protein concentration of 3 mg/mL.
The protein concentration in the 1-ml final incubation volume was 800 μg/ml, corresponding to 32 mg of brain tissue (original wet weight) and to a tissue concentration within the linear range for specific binding.
The volume of the assays may be changed, specifically halved, so long as the concentrations of the constituents remain the same. […] Incubations were terminated after 90 minutes at room temperature by addition of 4 ml of ice-cold 50 mM Tris/HCI (pH 7.4) and rapid filtration of the membrane suspension through Whatman® GF/B or Schieicher & Schuell #32 glass-fiber filters under vacuum, using a 48-well cell harvester (Brandel). The filters were washed 2 times with 4 mL of 50 mM Tris/HCI (pH 7.4). Each filter was suspended in 10 ml Cytoscint (ICI), and radioactivity was measured by liquid scintillation spectrometry at a counting efficiency of approximately 50%. IC50 values (indicated as Ki in Tables II below) were determined by non-linear regression analysis.
`c1ccc(CCCCCNCCc2ccccc2)cc1` had an IC50 of 3.66 nM.

For `CNC(CCCCCc1ccccc1)CCCCCc1ccccc1`, the IC50 was 2.97 nM.

In turn, `c1cc2c(cc1CCCCCN1CCCCC1)OCO2` [drawing 25] returned an IC50 of 2.25 nM.

The test is the same for the next values; noted with them: Table II; [^3 H]DTG 1.4 nM, guinea pig brain membranes, pH 7.4, 90 minutes room temperature; IC50 values indicated as Ki; read-out: Ki nM (± SEM).
With `O=C(CCCCN1CCC(c2ccccc2)CC1)c1ccc(F)cc1` [Compound 5], the Ki stood at 0.8 nM.

For `COc1ccc(CCCCCN2CCC(c3ccccc3)CC2)cc1` [Compound 16], the Ki stood at 1.2 nM.

Turning to `O=C(CCCCN1CCCCC1)c1ccccc1` [Compound 17], the Ki is 25.2 nM.

Turning to `O=C(CCCCN1CCC(c2ccc(Cl)cc2)CC1)c1ccc(Cl)cc1` [Compound 10], the inhibition constant (Ki) amounted to 1.8 nM.

Take `Clc1ccc(CCCCCN2CCC(c3ccccc3)CC2)cc1` [Compound 15]: the Ki was 1.8 nM.

For `COc1ccc(C(=O)CCCCN2CCC(c3ccccc3)CC2)cc1` [Compound 2, 1-(4-Methoxyphenyl)-5-(4-phenyl-l-piperidino)pentanone Hydrochloride], the Ki worked out at 0.8 nM.

As for `O=C(CCCCN1CCCCC1)c1cccc(Cl)c1` [Compound 20], the Ki was 3.8 nM.

As for `O=C(CCCCN1CCC(c2ccccc2)CC1)c1ccc(Cl)cc1` [Compound 7], the inhibition constant Ki stood at 0.5 nM.

Regarding `COc1ccc(C(=O)CCCCN2CCCCC2)cc1` [Compound 21], the Ki was 9.9 nM.

For the compound `O=C(CCCCN1CCCCC1)c1ccc(Cl)cc1` [Compound 19], the inhibition constant Ki is 1.2 nM.

As for `c1ccc(CCCCCN2CCC(c3ccccc3)CC2)cc1` [Compound 14], the inhibitory constant (Ki) is 0.9 nM.

Turning to `COc1cccc(CCCCCN2CCCCC2)c1` [Compound 25], the Ki is 10.7 nM.

`Clc1ccc(CCCCCN2CCCCC2)cc1` [Compound 3, N-[5-(4-Chlorophenyl)pentyl]piperidine Hydrochloride]: the inhibition constant (Ki) amounted to 2 nM.

Take `O=C(CCCCN1CCC(c2ccc(Cl)cc2)CC1)c1ccc(Cl)c(Cl)c1` [Compound 1, 1,2,4-Dichlorophenyl-5-[4-(4-chlorophenyl)-1-piperidino]pentanone Hydrochloride]: the Ki worked out at 1.8 nM.

Take `O=C(CCCCN1CCCCC1)c1ccc(F)cc1` [Compound 18]: the Ki worked out at 6.7 nM.

As for `c1ccc(CCCCCN2CCCCC2)cc1` [Compound 23], the Ki stood at 1.9 nM.

Turning to `O=C(CCCCN1CCC(O)(c2ccc(Cl)cc2)CC1)c1ccc(F)cc1` [Compound 4], the Ki amounted to 2.6 nM.

On to `COc1cccc(C(=O)CCCCN2CCC(c3ccccc3)CC2)c1` [Compound 9], for which the Ki was found to be 1 nM.

For `COc1cccc(C(=O)CCCCN2CCCCC2)c1` [Compound 22], the Ki amounted to 20.7 nM.

Regarding `O=C(CCCCN1CCC(c2ccccc2)CC1)c1cccc(Cl)c1` [Compound 8], the Ki was found to be 1.1 nM.

`O=C(CCCCN1CCC(c2ccccc2)CC1)c1ccccc1` [Compound 6]: the inhibitory constant (Ki) came out at 0.9 nM.

As for `O=C(CCCCN1CC=C(c2ccc(F)cc2)CC1)c1ccc(Cl)cc1` [Compound 13], the Ki worked out at 2 nM.

In the case of `O=C(CCCCN1CC=C(c2ccc(Cl)cc2)CC1)c1ccc(Cl)cc1` [Compound 12], the Ki is 4.3 nM.

`COc1ccc(CCCCCN2CCCCC2)cc1` [Compound 24]: the Ki came out at 4.7 nM.

For another test, the target named is sigma-1 receptor (Cavia porcellus, UniProt Q60492). Put plainly: biochemical.
Sequence of sigma-1 receptor (Q60492 whole entry): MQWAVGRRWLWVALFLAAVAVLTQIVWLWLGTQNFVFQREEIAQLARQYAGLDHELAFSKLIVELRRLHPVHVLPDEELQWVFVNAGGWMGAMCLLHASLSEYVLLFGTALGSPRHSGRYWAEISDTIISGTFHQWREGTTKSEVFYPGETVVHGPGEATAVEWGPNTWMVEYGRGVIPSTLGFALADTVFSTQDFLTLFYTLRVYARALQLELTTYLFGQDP
Conditions: not given
In the case of `CN1CCN(CCCCCc2ccccc2)CC1`, the affinity corresponds to a Ki of 1.44 nM.

Take `CN(CCCCCc1cccc(C(F)(F)F)c1)CCc1ccccc1`: the inhibitory constant (Ki) worked out at 0.59 nM.

Consider `CN1CCC(=CCCCCc2ccccc2)CC1`, for which the affinity, expressed as Ki, was 9.87 nM.

In turn, `c1ccc(CNCCCN2CCN(c3ccccc3)CC2)cc1` displayed a Ki of 1.96 nM.

Regarding `c1ccc(CCCCCN2CCCC(Cc3ccccc3)C2)cc1` (stereo not shown), the Ki was 0.07 nM.

A further test deals with T1, sigma-2 receptor (Cavia porcellus, UniProt H0V073).
T1 construct: of guinea pig brain membranes in a total volume of 0.5 ml; from tissue; host or cells: guinea pig brain membranes
T1 sequence (H0V073 1-176): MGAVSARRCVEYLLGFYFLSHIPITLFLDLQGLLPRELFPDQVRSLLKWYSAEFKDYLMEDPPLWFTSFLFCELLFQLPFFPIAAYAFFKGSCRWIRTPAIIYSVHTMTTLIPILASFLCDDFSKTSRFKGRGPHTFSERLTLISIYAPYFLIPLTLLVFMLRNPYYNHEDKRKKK
Put plainly: Sigma-2 binding assay ([^3 H]DTG in the presence of (+)pentazocine). On the set-up: species or system guinea pig. The note with it: read-out: Sigma 2 IC50.
Source text: Protocols of the Sigma-1 and Sigma-2 binding assays employed are as follows:
Regarding `CN1CCN(CCCCCc2ccccc2)CC1`, the IC50 is 78.9 nM.

As for `CN(CCCCCc1cccc(C(F)(F)F)c1)CCc1ccccc1`, the IC50 is 3.57 nM.

As to `CN1CCC(=CCCCCc2ccccc2)CC1`, the IC50 was 258 nM.

Consider `c1ccc(CNCCCN2CCN(c3ccccc3)CC2)cc1`, for which the concentration for half-maximal inhibition (IC50) worked out at 101 nM.

As to `c1ccc(CCCCCN2CCCC(Cc3ccccc3)C2)cc1` (stereo not shown), the IC50 stood at 4.17 nM.

`CC1CCN(CCCC=C(c2ccccc2)c2ccccc2)CC1`: the IC50 turned out to be 25 nM.

Consider `C(CCCNCCc1ccccc1)=C(c1ccccc1)c1ccccc1`, for which the IC50 stood at 142 nM.

Regarding `CN(CCCCC(c1ccccc1)c1ccccc1)CCc1ccccc1`, the IC50 came to 31.5 nM.
